Target: Human immunodeficiency virus type 1 reverse transcriptase (Human immunodeficiency virus 1, UniProt Q72547)
Assay: Inhibitory activity against HIV-1 reverse transcriptase

IC50: < 2000 nM
Compound: CC(=O)Nc1ccc2c(c1)C(C#CC(C)C)(C(F)(F)F)OC(=O)N2 (stereo unspecified)

— ChEMBL document CHEMBL1138728, “QSAR modelling of HIV-1 reverse transcriptase inhibition by benzoxazinones using a combination of P_VSA and pharmacophore feature descriptors” (Bioorg Med Chem Lett, 2004)
